Test results taken from ChEMBL document CHEMBL1129323, “Comparative molecular moment analysis (CoMMA): 3D-QSAR without molecular superposition” (J Med Chem, 1996).

Tests used:
[1] = Hammett constant was evaluated; type: ADME
[2] = target: T1, Corticosteroid-binding globulin (Homo sapiens) (UniProt P08185)
T1 sequence (whole entry): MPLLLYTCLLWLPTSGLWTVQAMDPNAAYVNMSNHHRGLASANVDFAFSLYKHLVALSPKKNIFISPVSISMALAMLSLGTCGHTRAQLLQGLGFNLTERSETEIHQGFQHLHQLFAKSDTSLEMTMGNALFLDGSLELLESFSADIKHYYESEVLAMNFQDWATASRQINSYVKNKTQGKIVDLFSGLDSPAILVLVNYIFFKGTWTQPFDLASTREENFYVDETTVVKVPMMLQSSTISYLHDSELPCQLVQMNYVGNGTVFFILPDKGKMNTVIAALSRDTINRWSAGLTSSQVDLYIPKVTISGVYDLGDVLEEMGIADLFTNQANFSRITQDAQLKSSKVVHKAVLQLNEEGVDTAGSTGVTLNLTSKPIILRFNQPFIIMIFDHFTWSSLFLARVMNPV
Description: Binding affinity for corticosteroid binding globulin is expressed as log(1/k)

[3] = target: T2, Sex hormone-binding globulin (Homo sapiens) (UniProt P04278)
T2 sequence (whole entry): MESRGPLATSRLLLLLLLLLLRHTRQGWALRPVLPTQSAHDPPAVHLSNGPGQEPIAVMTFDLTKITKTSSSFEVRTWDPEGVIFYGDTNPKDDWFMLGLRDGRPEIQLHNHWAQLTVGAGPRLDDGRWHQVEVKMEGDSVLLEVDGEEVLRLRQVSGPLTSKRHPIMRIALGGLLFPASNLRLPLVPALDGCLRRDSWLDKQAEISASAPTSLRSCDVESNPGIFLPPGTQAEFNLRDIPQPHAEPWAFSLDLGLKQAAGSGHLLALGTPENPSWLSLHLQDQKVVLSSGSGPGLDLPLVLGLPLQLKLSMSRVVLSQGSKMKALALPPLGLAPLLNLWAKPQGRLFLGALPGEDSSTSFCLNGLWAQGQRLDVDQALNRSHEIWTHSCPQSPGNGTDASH
Description: Binding affinity towards testosterone binding globulin is expressed as log(1/k).

| Compound | Hammett constant [1] | Log 1/K [2] | Log 1/K [3] |
| --- | --- | --- | --- |
| O=C(O)c1cccc(CBr)c1 | 0.12 | – | – |
| CS(=O)(=O)c1cccc(C(=O)O)c1 | 0.6 | – | – |
| O=C(O)c1cccc(OC(F)(F)F)c1 | 0.38 | – | – |
| O=C(O)c1ccc(CI)cc1 | 0.11 | – | – |
| O=C(O)c1cccc(C(F)(F)C(F)(F)F)c1 | 0.47 | – | – |
| C[C@]12C=CC(=O)C=C1CC[C@@H]1[C@@H]2[C@@H](O)C[C@@]2(C)[C@H]1CC[C@]2(O)C(=O)CO | – | 7.51 | – |
| O=C(O)c1cccc(CCl)c1 | 0.11 | – | – |
| N#Cc1ccc(C(=O)O)cc1 | 0.66 | – | – |
| C[C@]12C[C@@H](O)[C@H]3[C@@H](CCC4=CC(=O)CC[C@@]43C)[C@@H]1CC[C@@H]2C(=O)CO | – | 7.2 | – |
| C[C@]12C[C@H](O)[C@H]3[C@@H](CCC4=CC(=O)CC[C@@]43C)[C@@H]1CC[C@@H]2C(=O)CO | – | 7.88 | 6.34 |
| O=C(O)c1ccccc1 [BENZOIC ACID] | 0 | – | – |
| O=C(O)c1ccc(Br)cc1 | 0.23 | – | – |
| O=C(O)c1ccc(C(F)(F)F)cc1 | 0.54 | – | – |
| CC(=O)[C@H]1CC[C@H]2[C@@H]3CCC4=CC(=O)CC[C@@H]4[C@H]3CC[C@]12C | – | 6.82 | – |
| O=C(O)c1ccc(O)cc1 [PARABEN] | -0.37 | – | – |
| C[C@]12CC[C@H](O)CC1=CC[C@@H]1[C@@H]2CC[C@]2(C)C(=O)CC[C@@H]12 | – | 5 | 7.82 |
| CC(=O)[C@H]1CC[C@H]2[C@@H]3CC=C4C[C@@H](O)CC[C@]4(C)[C@H]3CC[C@]12C | – | 5.25 | 7.15 |
| O=C(O)c1ccc([N+](=O)[O-])cc1 [4-NITROBENZOIC ACID] | 0.78 | – | – |
| O=C(O)c1cccc(C(F)(F)F)c1 | 0.43 | – | – |
| N#Cc1cccc(C(=O)O)c1 | 0.56 | – | – |
| CS(=O)(=O)c1ccc(C(=O)O)cc1 | 0.72 | – | – |
| CCc1ccc(C(=O)O)cc1 | -0.15 | – | – |
| O=C(O)c1cccc(S(=O)(=O)C(F)(F)F)c1 | 0.79 | – | – |
| CSc1ccc(C(=O)O)cc1 | 0 | – | – |

| Compound | Hammett constant [1] | Log 1/K [2] | Log 1/K [3] |
| --- | --- | --- | --- |
| CC(=O)[C@H]1CC[C@H]2[C@@H]3CCC4=CC(=O)CC[C@]4(C)[C@H]3C(=O)C[C@]12C | – | 6.78 | – |
| C[C@]12CC[C@@H]3c4ccc(O)cc4CC[C@H]3[C@@H]1C[C@@H](O)[C@@H]2O | – | 5 | 6.63 |
| O=C(O)c1cccc(S)c1 | 0.25 | – | – |
| CC(=O)OCC(=O)[C@@]1(O)CCC2C3CCC4=CC(=O)CC[C@]4(C)C3C(O)C[C@@]21C (some centres not stated) | – | 7.55 | – |
| C[C@]12CC[C@H]3[C@@H](CCC4=CC(=O)CC[C@@]43C)[C@@H]1CC[C@@H]2C(=O)CO | – | 7.65 | 7.38 |
| O=C(O)c1ccc(F)cc1 | 0.06 | – | – |
| O=C(O)c1ccc(S(=O)(=O)C(F)(F)F)cc1 | 0.93 | – | – |
| CC(=O)[C@@]1(O)[C@H](O)C[C@H]2[C@@H]3CCC4=CC(=O)CC[C@]4(C)[C@H]3CC[C@@]21C | – | 6.25 | – |
| O=C(O)c1ccc(S)cc1 | 0.15 | – | – |
| COc1cccc(C(=O)O)c1 | 0.12 | – | – |
| O=C(O)c1cccc(CI)c1 | 0.1 | – | – |
| CC(=O)[C@@]1(O)CC[C@H]2[C@@H]3CC=C4C[C@@H](O)CC[C@]4(C)[C@H]3CC[C@@]21C | – | 5 | 6.36 |
| Nc1cccc(C(=O)O)c1 [3-AMINOBENZOIC ACID] | -0.16 | – | – |
| C[C@]12CCC(=O)C=C1CC[C@@H]1[C@@H]2C(=O)C[C@@]2(C)[C@H]1CC[C@]2(O)C(=O)CO | – | 6.89 | 6.43 |
| O=C(O)c1cccc(S(=O)(=O)F)c1 | 0.8 | – | – |
| C[C@]12CC[C@H]3[C@@H](CCC4=CC(=O)CC[C@@H]43)[C@@H]1CC[C@@H]2O | – | 6.14 | – |
| C[C@@H]1C[C@@]2(C)C(=CC1=O)CC[C@H]1[C@@H]3CC[C@](O)(C(=O)CO)[C@@]3(C)C[C@H](O)[C@@]12F | – | 5.8 | – |
| C[C@]12CCC(=O)C=C1CC[C@@H]1[C@@H]2[C@@H](O)C[C@@]2(C)[C@H]1CC[C@]2(O)C(=O)CO | – | 7.88 | 6.2 |
| CC(=O)[C@H]1CC[C@H]2[C@@H]3CCC4=CC(=O)CC[C@]4(C)[C@H]3CC[C@]12C | – | 7.38 | 6.94 |
| O=C(O)c1cccc(F)c1 | 0.34 | – | – |
| CC(=O)[C@@]1(C)CCC2C3CCC4=CC(=O)CC[C@]4(C)C3CC[C@@]21C (some centres not stated) | – | 7.12 | – |
| C[C@]12CC[C@H](O)C[C@@H]1CC[C@@H]1[C@@H]2CC[C@]2(C)[C@@H](O)CC[C@@H]12 | – | 5 | 9.11 |
| C[C@]12CCC(=O)C=C1CC[C@@H]1[C@@H]2[C@@H](O)C[C@]2(C=O)[C@@H](C(=O)CO)CC[C@@H]12 | – | 6.28 | 5.32 |
| C[C@]12CCC(=O)C=C1CC[C@@H]1[C@@H]2CC[C@@]2(C)[C@H]1CC[C@]2(O)C(=O)CO | – | 7.88 | 7.2 |

| Compound | Hammett constant [1] | Log 1/K [2] | Log 1/K [3] |
| --- | --- | --- | --- |
| O=C(O)c1ccc(CCl)cc1 | 0.12 | – | – |
| O=C(O)c1ccc(CBr)cc1 | 0.14 | – | – |
| Nc1ccc(C(=O)O)cc1 [AMINOBENZOIC ACID] | -0.66 | – | – |
| C[C@]12CC[C@H]3[C@@H](CCC4=CC(=O)CC[C@@]43C)[C@@H]1CC[C@@H]2O | – | 6.72 | 9.2 |
| Cc1cccc(C(=O)O)c1 | -0.07 | – | – |
| O=C(O)c1cccc(I)c1 | 0.35 | – | – |
| O=C(O)c1cccc(Br)c1 | 0.39 | – | – |
| CC(=O)[C@@]1(O)CC[C@H]2[C@@H]3CCC4=CC(=O)CC[C@]4(C)[C@H]3CC[C@@]21C | – | 7.74 | 7 |
| O=C(O)c1cccc([N+](=O)[O-])c1 | 0.71 | – | – |
| C[C@]12CCC(=O)C=C1CC[C@@H]1[C@@H]2CC[C@]2(C)C(=O)CC[C@@H]12 | – | 5.76 | 7.46 |
| O=C(O)c1ccc(C(F)(F)C(F)(F)F)cc1 | 0.52 | – | – |
| CC(C)(C)c1cccc(C(=O)O)c1 | -0.1 | – | – |
| O=C(O)c1ccc(SC(F)(F)F)cc1 | 0.5 | – | – |
| O=C(O)c1ccc(S(=O)(=O)F)cc1 | 0.91 | – | – |
| CCc1cccc(C(=O)O)c1 | -0.07 | – | – |
| COc1ccc(C(=O)O)cc1 [p-ANISIC ACID] | -0.27 | – | – |
| O=C(O)c1cccc(SC(F)(F)F)c1 | 0.4 | – | – |
| CC(C)(C)c1ccc(C(=O)O)cc1 | -0.2 | – | – |
| O=C(O)c1ccc(OC(F)(F)F)cc1 | 0.35 | – | – |
| O=C(O)c1ccc(I)cc1 | 0.18 | – | – |
| O=C(O)c1cccc(Cl)c1 | 0.37 | – | – |
| Cc1ccc(C(=O)O)cc1 [4-METHYLBENZOIC ACID] | -0.17 | – | – |
| CSc1cccc(C(=O)O)c1 | 0.15 | – | – |
| O=C(O)c1cccc(O)c1 [3-HYDROXYBENZOIC ACID] | 0.12 | – | – |
